The text below walks through data of ChEMBL document CHEMBL5143570, “Development of naringenin-O-carbamate derivatives as multi-target-directed liagnds for the treatment of Alzheimer's disease” (Bioorg Med Chem Lett, 2022).

The target in data set [1] is Butyrylcholinesterase (Rattus norvegicus, UniProt Q9JKC1). Description: Inhibition of rat serum Butyrylcholine esterase using butyrylthiocholine as substrate incubated for 15 mins by DTNB reagent based Ellman's method. The data set is classed as cell-free.
The target of data set [2] is Acetylcholinesterase (Homo sapiens, UniProt P22303). The data set can be described thus: Inhibition of human erythrocyte AChE using acetylthiocholine as substrate incubated for 15 mins by DTNB reagent based Ellman's method. Type of data set: cell-based.
Data set [3] is filed under the species Homo sapiens. Description: Selectivity index, ratio of IC50 for inhibition of human serum BuChE to IC50 for inhibition of human erythrocyte AChE.
Data set [4] is described as follows: Effect on tau protein expression in pRK5-GFP-Tau plasmid transfected mouse HT-22 cells assessed as reduction in fluorescence intensity at 5 uM incubated for 24 hrs by fluorescence microscopic analysis (reference value: 36.8). The data set is classed as functional.
Data set [5] in a line: Effect on tau protein expression in pRK5-GFP-Tau plasmid transfected mouse HT-22 cells assessed as reduction in fluorescence intensity at 20 uM incubated for 24 hrs by fluorescence microscopic analysis (reference value: 36.8). The data set is classed as functional.
Data set [6] has as its system HT-22. The data set can be described thus: Effect on tau protein expression in pRK5-GFP-Tau plasmid transfected mouse HT-22 cells assessed as fluorescence intensity by measuring decrease in GFP level incubated for 24 hrs by western blot analysis. The settings on record: dose 5-20 µM, DDE = dose-dependent effect. The data set is classed as functional, cell-based.
Data set [7] deals with HT-22. The data set can be described thus: Effect on tau protein expression in pRK5-GFP-Tau P301L plasmid transfected mouse HT-22 cells assessed as fluorescence intensity by measuring decrease in GFP level by western blot analysis. The settings on record: dose 5-20 µM, DDE = dose-dependent effect. The data set is classed as functional, cell-based.
Data set [8] is described as follows: Effect on APP protein expression in pEGFP-N1-APP plasmid transfected mouse HT-22 cells assessed as decrease in fluorescence intensity at 20 uM incubated for 24 hrs by fluorescence microscopic analysis (reference value: 30.7). Type of data set: functional.
A short description of data set [9]: Inhibition of LPS-induced NO production in mouse BV-2 cells at 10 uM by Griess reaction method relative to control. Type of data set: functional.
Data set [10] relates to BV-2. The data set can be described thus: Cytotoxicity against mouse BV-2 cells assessed as increase in cell viability at 5 to 10 uM by MTT assay. The note with it: bv-2, 10 µM, dose 5-10 µM. The data set is classed as toxicity, cell-based.
Data set [11] relates to PC-12. The data set can be described thus: Neuroprotective activity against H2O2-induced cytotoxicity in rat PC-12 cells assessed as increase in cell viability at 5 uM by MTT assay relative to control. Type of data set: functional.

Acetylcholinesterase, sequence (P22303 whole entry): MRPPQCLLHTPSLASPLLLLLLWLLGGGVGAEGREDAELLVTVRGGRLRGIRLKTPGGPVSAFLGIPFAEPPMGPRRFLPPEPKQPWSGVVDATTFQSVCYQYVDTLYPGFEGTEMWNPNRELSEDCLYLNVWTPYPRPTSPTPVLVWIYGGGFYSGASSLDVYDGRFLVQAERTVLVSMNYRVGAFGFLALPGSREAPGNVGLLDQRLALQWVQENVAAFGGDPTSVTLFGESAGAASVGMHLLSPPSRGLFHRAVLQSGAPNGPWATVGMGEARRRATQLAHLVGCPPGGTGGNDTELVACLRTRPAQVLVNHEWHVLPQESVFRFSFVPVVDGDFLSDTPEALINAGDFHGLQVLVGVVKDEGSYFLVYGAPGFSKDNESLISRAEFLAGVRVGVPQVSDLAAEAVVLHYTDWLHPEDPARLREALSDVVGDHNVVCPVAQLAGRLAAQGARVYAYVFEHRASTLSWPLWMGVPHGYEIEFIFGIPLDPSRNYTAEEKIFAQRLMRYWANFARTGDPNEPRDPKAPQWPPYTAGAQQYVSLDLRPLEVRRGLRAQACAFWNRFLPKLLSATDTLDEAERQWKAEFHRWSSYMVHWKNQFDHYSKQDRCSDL
Butyrylcholinesterase, sequence (Q9JKC1 whole entry): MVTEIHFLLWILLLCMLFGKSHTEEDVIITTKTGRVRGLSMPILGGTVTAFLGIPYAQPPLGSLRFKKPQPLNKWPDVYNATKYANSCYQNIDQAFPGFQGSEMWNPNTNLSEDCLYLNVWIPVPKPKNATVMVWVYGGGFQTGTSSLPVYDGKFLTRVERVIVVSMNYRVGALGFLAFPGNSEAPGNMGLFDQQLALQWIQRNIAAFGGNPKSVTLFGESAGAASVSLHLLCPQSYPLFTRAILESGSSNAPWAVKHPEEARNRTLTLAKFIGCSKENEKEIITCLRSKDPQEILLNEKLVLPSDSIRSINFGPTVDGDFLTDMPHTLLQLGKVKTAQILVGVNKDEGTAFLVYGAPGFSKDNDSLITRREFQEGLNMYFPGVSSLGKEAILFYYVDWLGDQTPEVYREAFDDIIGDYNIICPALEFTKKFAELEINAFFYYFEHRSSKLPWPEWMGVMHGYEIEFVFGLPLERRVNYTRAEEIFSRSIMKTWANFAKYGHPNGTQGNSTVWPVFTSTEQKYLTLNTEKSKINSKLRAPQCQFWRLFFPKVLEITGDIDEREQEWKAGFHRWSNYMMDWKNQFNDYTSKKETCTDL

For `CCN(C)C(=O)Oc1ccc(C2CC(=O)c3c(O)cc(OC(=O)N(C)CC)cc3O2)cc1` (stereo unspecified), the IC50 turned out to be 30.6 µM in data set [1] and 9.7 µM in data set [2]. Moreover, the Ratio IC50 in data set [3] came out at 2.1. Besides, the values for the Flu intensity in [4], in [5] and in data set [8] were 25.9, 6.48 and 15.5, respectively. In addition, the Activity entry in [6] is “Dde”; in data set [7] it was “Dde”; in [10], “Non-Toxic”; in [11] it was 63.8%. Moreover, the inhibition at 10 µM in [9] is 55.6%.
